Data published in the kinase profiling compilation of Christmann-Franck et al. (2016).
Values belong to the compound of their own block, whether it stands above or below them.

Tests used:
DYRK4 (human) = DYRK4 (human) (UniProt Q9NR20); assay: Caliper, Mobility shift assay off-chip
MELK (human) = MELK (human) (UniProt Q14680); assay: Caliper, Mobility shift assay off-chip
MET (human) [1] = biological target: MET (human) (UniProt P08581); assay: Caliper, Mobility shift assay off-chip
ITK (human) = ITK (human) (UniProt Q08881); assay: Caliper, Mobility shift assay off-chip
PIM3 (human) = PIM3 (human) (UniProt Q86V86); assay: Caliper, Mobility shift assay off-chip
DCLK1 (human) = DCLK1 (human) (UniProt O15075); assay: Caliper, Mobility shift assay off-chip
MET (human) [2] = biological target: MET (human) (UniProt P08581); assay: TR FRET
[3] = system: FLT4 (human), P35916 [V1128L/H1146R]; assay: radiometric filter-binding kinase assay, Kinaseprofiler; settings: compound 1.0 µM; ATP 200 µM
FGFR1 (human) = FGFR1 (human) (UniProt P11362); assay: as above; settings: compound 1.0 µM; ATP 200 µM
RET (human) = RET (human) (UniProt P07949); assay: as above; settings: compound 1.0 µM; ATP 70 µM
CDC42BPB (human) = CDC42BPB (human) (UniProt Q9Y5S2); assay: as above; settings: compound 1.0 µM; ATP 10 µM
MINK1 (human) = MINK1 (human) (UniProt Q8N4C8); assay: as above; settings: compound 1.0 µM; ATP 185 µM
EPHA4 (human) = EPHA4 (human) (UniProt P54764); assay: as above; settings: compound 1.0 µM; ATP 15 µM
EPHA3 (human) = EPHA3 (human) (UniProt P29320); assay: as above; settings: compound 1.0 µM; ATP 120 µM
[4] = system: EPHB2 (human), P29323 [A848S/K918E]; assay: as above; settings: compound 1.0 µM; ATP 10 µM
PRKCB2 (human) = PRKCB2 (human) (UniProt P05771); assay: as above; settings: compound 1.0 µM; ATP 10 µM
[5] = system: ABL1 (human), P00519 [T315I]; assay: as above; settings: compound 1.0 µM; ATP 10 µM
TYRO3 (human) = TYRO3 (human) (UniProt Q06418); assay: as above; settings: compound 1.0 µM; ATP 45 µM
FGR (human) = FGR (human) (UniProt P09769); assay: as above; settings: compound 1.0 µM; ATP 45 µM
CSNK2A2 (human) = CSNK2A2 (human) (UniProt P19784); assay: as above; settings: compound 1.0 µM; ATP 10 µM
[6] = system: HIPK2 (human), Q9H2X6 [I471N]; assay: as above; settings: compound 1.0 µM; ATP 10 µM
CDK5 CDK5R1 p35 (human) = CDK5 CDK5R1 p35 (human) (UniProt Q00535+Q15078); assay: as above; settings: compound 1.0 µM; ATP 15 µM
CDK7 CCNH MNAT1 (human) = CDK7 CCNH MNAT1 (human) (UniProt P50613+P51948+P51946); assay: as above; settings: compound 1.0 µM; ATP 90 µM
[7] = system: AKT3 (human), Q9Y243 [S472D]; assay: as above; settings: compound 1.0 µM; ATP 45 µM
EPHA1 (human) = EPHA1 (human) (UniProt P21709); assay: as above; settings: compound 1.0 µM; ATP 45 µM
CHUK (human) = CHUK (human) (UniProt O15111); assay: as above; settings: compound 1.0 µM; ATP 10 µM
CSK (human) = CSK (human) (UniProt P41240); assay: as above; settings: compound 1.0 µM; ATP 15 µM
PAK7 (human) = PAK7 (human) (UniProt Q9P286); assay: as above; settings: compound 1.0 µM; ATP 15 µM
[8] = biological target: CSNK2A1 CSNK2B CSNK2A2 (human) (UniProt P19784+P68400+P67870); assay: as above; settings: compound 1.0 µM; ATP 15 µM
KDR (human) = KDR (human) (UniProt P35968); assay: as above; settings: compound 1.0 µM; ATP 90 µM
ERBB4 (human) = ERBB4 (human) (UniProt Q15303); assay: as above; settings: compound 1.0 µM; ATP 15 µM
[9] = system: EEF2K (human), O00418 [H23R]; assay: as above; settings: compound 1.0 µM; ATP 15 µM
BMX (human) = BMX (human) (UniProt P51813); assay: as above; settings: compound 1.0 µM; ATP 45 µM
[10] = system: MAPK14 (human), Q16539 [T106M]; assay: as above; settings: compound 1.0 µM; ATP 90 µM
[11] = system: GSK3A (human), P49840 [S449A]; assay: as above; settings: compound 1.0 µM; ATP 10 µM
PDPK1 (human) = PDPK1 (human) (UniProt O15530); assay: as above; settings: compound 1.0 µM; ATP 10 µM

inhibition (DYRK4 (human); compound 0.1 µM): 1.8% | inhibition (DYRK4 (human); compound 1.0 µM): 0.5% | inhibition (MELK (human); compound 0.1 µM): 2.7% | inhibition (MELK (human); compound 1.0 µM): 5.7% | inhibition (MET (human) [1]; compound 0.1 µM): 74.1% | inhibition (MET (human) [1]; compound 1.0 µM): 95.7% | inhibition (ITK (human); compound 0.1 µM): -5% | inhibition (ITK (human); compound 1.0 µM): -1.8% | inhibition (PIM3 (human); compound 0.1 µM): -3.4% | inhibition (PIM3 (human); compound 1.0 µM): 0.3% | inhibition (DCLK1 (human); compound 0.1 µM): -26.1% | inhibition (DCLK1 (human); compound 1.0 µM): -5.4% | IC50 (MET (human) [2]): 85 nM
Structure (SMILES): O=C(CCc1ccc2ccc3ncc(C4CCNCC4)cc3c(=O)c2c1)NCc1ccccn1

inhibition (DYRK4 (human); compound 0.01 µM): 8.3% | inhibition (DYRK4 (human); compound 0.1 µM): 12.1% | inhibition (MELK (human); compound 0.01 µM): 1.7% | inhibition (MELK (human); compound 0.1 µM): -0.5% | inhibition (ITK (human); compound 0.01 µM): -2.6% | inhibition (ITK (human); compound 0.1 µM): 15.3% | inhibition (PIM3 (human); compound 0.01 µM): 7% | inhibition (PIM3 (human); compound 0.1 µM): 4.6% | inhibition (DCLK1 (human); compound 0.01 µM): 5.9% | inhibition (DCLK1 (human); compound 0.1 µM): 12%
Structure (SMILES): Cn1cc(-c2cnc3ccc4ccc(CS(=O)(=O)NC5CCCCC5)cc4c(=O)c3c2)cn1

inhibition (MET (human) [1]; compound 0.01 µM): 94.7% | inhibition (MET (human) [1]; compound 0.1 µM): 99.3% | IC50 (MET (human) [2]): 1 nM
Structure (SMILES): O=c1c2cc(CS(=O)(=O)NCc3ccccn3)ccc2ccc2ncc(C3CCNCC3)cc12

inhibition (DYRK4 (human); compound 0.1 µM): 16.9% | inhibition (DYRK4 (human); compound 1.0 µM): 1.3% | inhibition (MELK (human); compound 0.1 µM): 11.5% | inhibition (MELK (human); compound 1.0 µM): 45.5% | inhibition (ITK (human); compound 0.1 µM): 7% | inhibition (ITK (human); compound 1.0 µM): 34.9% | inhibition (PIM3 (human); compound 0.1 µM): 4% | inhibition (PIM3 (human); compound 1.0 µM): 0.2% | inhibition (DCLK1 (human); compound 0.1 µM): 3.5% | inhibition (DCLK1 (human); compound 1.0 µM): 5.9%
Structure (SMILES): CN(c1ccc2ccc3ncc(-c4cnn(C)c4)cc3c(=O)c2c1)S(=O)(=O)NCc1ccccn1

residual activity [3]: 10% | residual activity (FGFR1 (human)): 5% | residual activity (RET (human)): 2% | residual activity (CDC42BPB (human)): 94% | residual activity (MINK1 (human)): 105% | residual activity (EPHA4 (human)): 103% | residual activity (EPHA3 (human)): 96% | residual activity [4]: 103% | residual activity (PRKCB2 (human)): 105% | residual activity [5]: 35% | residual activity (TYRO3 (human)): 97% | residual activity (FGR (human)): 90% | residual activity (CSNK2A2 (human)): 123% | residual activity [6]: 94% | residual activity (CDK5 CDK5R1 p35 (human)): 93% | residual activity (CDK7 CCNH MNAT1 (human)): 101% | residual activity [7]: 96% | residual activity (EPHA1 (human)): 65% | residual activity (CHUK (human)): 98% | residual activity (CSK (human)): 85% | residual activity (PAK7 (human)): 101% | residual activity [8]: 117% | residual activity (KDR (human)): 10% | residual activity (ERBB4 (human)): 84% | residual activity [9]: 93% | residual activity (BMX (human)): 73% | residual activity [10]: 112% | residual activity [11]: 86% | residual activity (PDPK1 (human)): 105%
Structure (SMILES): CN(C)S(=O)(=O)Nc1ccc2ccc3ncc(-c4cnn(C)c4)cc3c(=O)c2c1
